Experiments:
[1] = system: IPOHE (Morningglory, Ivyleaf); experiment: Preemergence herbicidal evaluation; format: in vivo, Ipomoea hederacea; details: preemergence, rated 4-5 weeks after treatment, 0-9 scale
How it was run: (§1)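 Seeds were mixed with potting soil and planted on about one inch of soil, then sprayed with test compound in aqueous acetone at about 0.0156 to 0.500 kg per hectare. Plants grew under standard greenhouse care and were visually rated 0-9 against untreated controls 4-5 weeks post-treatment.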

ZEAMX (Corn, Field) [2] = experiment: Postemergence herbicidal evaluation; format: in vivo, Zea mays; details: postemergence
How it was run: (§2)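 ~2-wk seedlings; postemergence spray, 40 psi; vehicle 1:1 acetone:water + 0.5% Tween 20; rate ≈0.0156–0.500 kg/ha; greenhouse hold; scored 4–5 wk after treatment, 0–9 scale vs control; repeat tests averaged.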

CYPSE (Flatsedge) [3] = experiment: Postemergence weed control under flooded paddy conditions; format: in vivo, Cyperus serotinus; details: postemergence weeds, rated 3 to 4 weeks after treatment
How it was run: (§3)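 With weeds 3 to 5 cm tall and rice at the 1.5 to 2.5 leaf stage, containers were flooded and water held 1.5 to 3 cm above soil. Compounds in 50/50 v/v aqueous/acetone went into the flood water at about 0.0313 to 0.500 kg/ha a.i. Effects were visually rated 0–9 against controls after three to four weeks in the greenhouse.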

[4] = system: ECHORC (Watergrass (Calif.)); experiment: Preemergence weed control under flooded paddy conditions; format: in vivo, Echinochloa oryzoides; details: rated 3-4 weeks after treatment
How it was run: (§4)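 Silt loam, seeds in top 0.5 cm; flood held 1.5-3 cm; test cpd as acetone/water 50/50 into flood water, ~0.0313-0.500 kg/ha a.i.; greenhouse 3-4 wk; visual 0-9 score vs control.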

ZEAMX (Corn, Field) [5] = experiment: Preemergence herbicidal evaluation; format: in vivo, Zea mays; details: preemergence, rated 4-5 weeks after treatment, 0-9 scale
How it was run: as §1

CYPIR (Rice Flatsedge) = experiment: Preemergence weed control under flooded paddy conditions; format: in vivo, Cyperus iria; details: rated 3-4 weeks after treatment
How it was run: as §4

CASOB (Sicklepod) = experiment: Postemergence herbicidal evaluation; format: in vivo, Cassia obtusifolia; details: postemergence
How it was run: as §2

[6] = system: CHEAL (Lambsquarters, Common); experiment: Preemergence herbicidal evaluation; format: in vivo, Chenopodium album; details: preemergence, rated 4-5 weeks after treatment, 0-9 scale
How it was run: as §1

[7] = system: TRZAWR (Wheat, Winter, cv Riband); experiment: Preemergence herbicidal evaluation; format: in vivo, Triticum aestivum; details: preemergence, rated 4-5 weeks after treatment, 0-9 scale
How it was run: as §1

AMBEL (Ragweed, Common) = experiment: Preemergence herbicidal evaluation; format: in vivo, Ambrosia artemisifolia; details: preemergence, rated 4-5 weeks after treatment, 0-9 scale
How it was run: as §1

ORYSAT (Rice, Tebonnet) = experiment: Preemergence herbicidal evaluation; format: in vivo, Oryza sativa, (L.) Tebonnet; details: preemergence, rated 4-5 weeks after treatment, 0-9 scale
How it was run: as §1

CYPSE (Flatsedge) [8] = experiment: Preemergence weed control under flooded paddy conditions; format: in vivo, Cyperus serotinus; details: rated 3-4 weeks after treatment
How it was run: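 Seeds or propagules sown in top 0.5 cm of silt loam soil, flooded 1.5 to 3 cm above surface throughout. Compound in 50/50 v/v aqueous/acetone pipetted into flood water at about 0.0313 to 0.500 kg/ha. Visual 0-9 rating versus control after three to four weeks in greenhouse.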

GALAP (Galium) = experiment: Postemergence herbicidal evaluation; format: in vivo, Galium aparine; details: postemergence
How it was run: as §2

[9] = system: ECHORC (Watergrass (Calif.)); experiment: Postemergence weed control under flooded paddy conditions; format: in vivo, Echinochloa oryzoides; details: postemergence weeds, rated 3 to 4 weeks after treatment
How it was run: as §3

In the case of C=CCN1C(=O)C(CC(=O)NC)SC1=Nc1cc(-n2c(=O)cc(C(F)(F)F)n(C)c2=O)c(F)cc1Cl (centres unmarked) [Compound 84, 3-Allyl-2-{{2-chloro-5-[3,6-dihydro-3-methyl-2,6-dioxo-4-(trifluoromethyl)-1(2H)-pyrimidinyl]-4-fluorophenyl}imino}-N-methyl-4-oxo-5-thiazolidineacetamide], the IPOHE rating ([1]; 0.0156 kg/ha) is reported as 0.0, the IPOHE rating ([1]; 0.0313 kg/ha) is reported as 0.0 and the IPOHE rating ([1]; 0.0625 kg/ha) is reported as 0.0. The IPOHE rating ([1]; 0.1250 kg/ha) was 1.0, the IPOHE rating ([1]; 0.2500 kg/ha) was 9.0 and the IPOHE rating ([1]; 0.5000 kg/ha) was 9.0. The ZEAMX herbicidal rating (ZEAMX (Corn, Field) [2]; rate 0.0156 kg/ha) was 4.0, the ZEAMX herbicidal rating (ZEAMX (Corn, Field) [2]; rate 0.0313 kg/ha) was 4.0 and the ZEAMX herbicidal rating (ZEAMX (Corn, Field) [2]; rate 0.0625 kg/ha) was 4.5. For the same compound, the ZEAMX herbicidal rating (ZEAMX (Corn, Field) [2]; rate 0.1250 kg/ha) was 5.0, the “Herbicidal rating CYPSE” value (CYPSE (Flatsedge) [3]; Rate 0.0313 kg/ha) was 0.0 and the “Herbicidal rating CYPSE” value (CYPSE (Flatsedge) [3]; Rate 0.0625 kg/ha) was 3.0. The “Herbicidal rating CYPSE” value (CYPSE (Flatsedge) [3]; Rate 0.1250 kg/ha) was 9.0, the “Herbicidal rating CYPSE” value (CYPSE (Flatsedge) [3]; Rate 0.2500 kg/ha) was 9.0 and the “ECHORC herbicidal effect rating” value ([4]; 0.0313 kg/ha) was 4.0. For the same compound, the “ECHORC herbicidal effect rating” value ([4]; 0.0625 kg/ha) was 5.0, the “ECHORC herbicidal effect rating” value ([4]; 0.1250 kg/ha) was 7.0 and the “ECHORC herbicidal effect rating” value ([4]; 0.2500 kg/ha) was 9.0. For the same compound, the ZEAMX rating (ZEAMX (Corn, Field) [5]; 0.0156 kg/ha) was 0.0, the ZEAMX rating (ZEAMX (Corn, Field) [5]; 0.0313 kg/ha) was 0.0 and the ZEAMX rating (ZEAMX (Corn, Field) [5]; 0.0625 kg/ha) was 0.0. The ZEAMX rating (ZEAMX (Corn, Field) [5]; 0.1250 kg/ha) was 5.0, the ZEAMX rating (ZEAMX (Corn, Field) [5]; 0.2500 kg/ha) was 8.0 and the ZEAMX rating (ZEAMX (Corn, Field) [5]; 0.5000 kg/ha) was 9.0. The “CYPIR herbicidal effect rating” value (CYPIR (Rice Flatsedge); 0.0313 kg/ha) was 3.0, the “CYPIR herbicidal effect rating” value (CYPIR (Rice Flatsedge); 0.0625 kg/ha) was 7.0 and the “CYPIR herbicidal effect rating” value (CYPIR (Rice Flatsedge); 0.1250 kg/ha) was 9.0. The “CYPIR herbicidal effect rating” value (CYPIR (Rice Flatsedge); 0.2500 kg/ha) was 9.0, the CASOB herbicidal rating (CASOB (Sicklepod); rate 0.0156 kg/ha) was 0.0 and the CASOB herbicidal rating (CASOB (Sicklepod); rate 0.0313 kg/ha) was 0.0. It also gave a CASOB herbicidal rating (CASOB (Sicklepod); rate 0.0625 kg/ha) of 0.0, a CASOB herbicidal rating (CASOB (Sicklepod); rate 0.1250 kg/ha) of 3.0 and a CHEAL rating ([6]; 0.0156 kg/ha) of 5.0. The CHEAL rating ([6]; 0.0313 kg/ha) was 9.0, the CHEAL rating ([6]; 0.0625 kg/ha) was 9.0 and the CHEAL rating ([6]; 0.1250 kg/ha) was 9.0. The CHEAL rating ([6]; 0.2500 kg/ha) was 9.0, the CHEAL rating ([6]; 0.5000 kg/ha) was 9.0 and the TRZAWR rating ([7]; 0.0156 kg/ha) was 0.0. It also gave a TRZAWR rating ([7]; 0.0313 kg/ha) of 0.0, a TRZAWR rating ([7]; 0.0625 kg/ha) of 0.0 and a TRZAWR rating ([7]; 0.1250 kg/ha) of 4.0. For the same compound, the TRZAWR rating ([7]; 0.2500 kg/ha) was 6.0, the TRZAWR rating ([7]; 0.5000 kg/ha) was 9.0 and the AMBEL rating (AMBEL (Ragweed, Common); 0.0156 kg/ha) was 0.0. For the same compound, the AMBEL rating (AMBEL (Ragweed, Common); 0.0313 kg/ha) was 3.0, the AMBEL rating (AMBEL (Ragweed, Common); 0.0625 kg/ha) was 4.0 and the AMBEL rating (AMBEL (Ragweed, Common); 0.1250 kg/ha) was 9.0. For the same compound, the AMBEL rating (AMBEL (Ragweed, Common); 0.2500 kg/ha) was 9.0, the AMBEL rating (AMBEL (Ragweed, Common); 0.5000 kg/ha) was 9.0 and the ORYSAT rating (ORYSAT (Rice, Tebonnet); 0.0156 kg/ha) was 0.0. It also gave an ORYSAT rating (ORYSAT (Rice, Tebonnet); 0.0313 kg/ha) of 0.0, an ORYSAT rating (ORYSAT (Rice, Tebonnet); 0.0625 kg/ha) of 0.0 and an ORYSAT rating (ORYSAT (Rice, Tebonnet); 0.1250 kg/ha) of 0.0. For the same compound, the ORYSAT rating (ORYSAT (Rice, Tebonnet); 0.2500 kg/ha) was 3.0, the ORYSAT rating (ORYSAT (Rice, Tebonnet); 0.5000 kg/ha) was 9.0 and the “CYPSE herbicidal effect rating” value (CYPSE (Flatsedge) [8]; 0.0313 kg/ha) was 0.0. For the same compound, the “CYPSE herbicidal effect rating” value (CYPSE (Flatsedge) [8]; 0.0625 kg/ha) was 3.0, the “CYPSE herbicidal effect rating” value (CYPSE (Flatsedge) [8]; 0.1250 kg/ha) was 9.0 and the “CYPSE herbicidal effect rating” value (CYPSE (Flatsedge) [8]; 0.2500 kg/ha) was 9.0. It also gave a GALAP herbicidal rating (GALAP (Galium); rate 0.0156 kg/ha) of 1.0, a GALAP herbicidal rating (GALAP (Galium); rate 0.0313 kg/ha) of 2.0 and a GALAP herbicidal rating (GALAP (Galium); rate 0.0625 kg/ha) of 4.0. For the same compound, the GALAP herbicidal rating (GALAP (Galium); rate 0.1250 kg/ha) was 7.0, the “Herbicidal rating ECHORC” value ([9]; Rate 0.0313 kg/ha) was 4.0 and the “Herbicidal rating ECHORC” value ([9]; Rate 0.0625 kg/ha) was 5.0. For the same compound, the “Herbicidal rating ECHORC” value ([9]; Rate 0.1250 kg/ha) was 7.0 and the “Herbicidal rating ECHORC” value ([9]; Rate 0.2500 kg/ha) was 9.0.

Reference: US20020137929A1, “1 - (3-heterocyclylphenyl) isothiourea, -isourea, -guanidine and -amidine herbicidal agents” (Intellectual Property Department, BASF Aktiengesellschaft, priority 1998, published 2002)
